# Data published in patent publication US20030187035A1, “Substituted hydrazones as inhibitors of cyclooxygenase-2” (priority 2001, published 2003).
# How the values were obtained:
# DLD-1 cells = assay: Soft agar assay, anchorage-independent colony growth; format: cell-based; conditions: DLD-1 human colorectal carcinoma cells in soft agar, three weeks
# Description: The Example 2, 3, 4 and 9 compounds were compared to the COX-2 inhibitor celecoxib in inhibiting the growth of DLD-1 cells in soft agar. DLD-1 cells are human colorectal carcinoma cells that overexpress COX-2. DLD-1 cells grow in soft agar and form tumors in nude mice. The soft agar assay was performed as follows. Bottom agar was first prepared as a 3 mL layer of 0.8% noble agar prepared in complete growth medium (DMEM containing 10% FBS and 500 units of penicillin-streptomycin) and placed into 60 mm^2 tissue culture dishes. The tumor cells were trypsinized from normal growth flasks while in exponential growth. The cells were counted by using a hemacytometer and 5.0×10^4 viable cells were mixed with 0.4% noble agar containing growth medium and various concentrations of drugs. Non-treated control plates received DMSO alone. Each drug concentration was run in duplicate. The concentration range was normally between 10 μM to 75 μM. The plates were incubated at 37° C. under 95% humidity for three weeks and stained with a 0.05% (w/v) nitroblue tetrazolium solution. This solution will only stain viable cells so that all growing cell in the form of colonies will appear blue. The plates were photographed using an Olympus stereoscope mounted with a SONY digital camera system.
# HT29 = assay: In vitro cytotoxicity assay (trypan exclusion, viable cell count); format: cell-based; conditions: HT-29; HT29 human colo-rectal carcinoma, 96 hours
# Description: (§1) The human colo-rectal carcinoma cell lines DLD-1, HT29, and HCT 116, and the human prostate carcinoma cell line DU145, were grown exponentially and plated onto 6 well dishes at a cell density of 1.0×10^5 cells per 35 mm well. Various concentration of 4-bromobenzaldehyde-4-sulfamylphenylhydrazone (Ex. 4) or DMSO were added 24 hours later. The number of viable cells were determined at each concentration tested 96 hours later by trypan exclusion using a hemacytometer. The GI50 (concentration of drug that inhibits 50% of tumor cell growth when compared to tumor cells treated with same volume of DMSO) was determined for each cell line.
# The same protocol was used to compare the growth inhibitory activity of 4-bromobenzaldehyde-4-sulfamylphenylhydrazone and celecoxib against the human colo-rectal tumor cell line HT29. The data are plotted as the percent of viable cells remaining as compared to DMSO (non-treated) cells.
# DLD-1 = assay: as above; format: cell-based; conditions: DLD-1 human colo-rectal carcinoma, 96 hours
# Description: as §1
# DU145 = assay: as above; format: cell-based; conditions: DU-145; DU145 human prostate carcinoma, 96 hours
# Description: as §1
# HCT116 = assay: as above; format: cell-based; conditions: HCT-116; HCT116 human colo-rectal carcinoma, 96 hours
# Description: as §1
# mice = assay: In vivo toxicity assay, survival after intraperitoneal dosing; conditions: survival at seven days
# Description: The compound of Example 4 was examined for in vivo toxicity in mice. Mice received intraperitoneal doses of compound suspended in DMSO, ranging from 25 to 400 mg/kg. Survival at seven days was determined.
# [1] = Bioavailability assay, plasma drug concentration after intraperitoneal injection; format: in vivo; conditions: mice; for concentration at 120 min: mouse, plasma, ip, 120 minutes post injection
# Description: The bioavailability of compound of Example 4 was examined as follows. Mice received a single dose (25 or 50 mg/kg) of compound suspended in DMSO via intraperitoneal injection. Plasma drug concentration was measured 120 minutes post injection.
compound,measurement,setting,value
"NS(=O)(=O)c1ccc(NN=Cc2ccc(Cl)cc2)cc1 [Example 3, 4-Chlorobenzaldehyde-4-sulfamylphenylhydrazone]",Concentration Required for Complete DLD-1 Colony Growth Inhibition,DLD-1 cells,20 µM
"Cc1ccc(-c2cc(C(F)(F)F)nn2-c2ccc(S(N)(=O)=O)cc2)cc1 [celecoxib, reference compound]",GI50,HT29,25 µM
"NS(=O)(=O)c1ccc(NN=Cc2ccc(Br)cc2)cc1 [Example 4, 4-Bromobenzaldehyde-4-sulfamylphenylhydrazone]",Concentration Required for Complete DLD-1 Colony Growth Inhibition,DLD-1 cells,<20 µM
same,Concentration Required for Complete DLD-1 Colony Growth Inhibition,DLD-1 cells; listed as Ex. 4,20 µM
same,GI50,DLD-1,30 µM
same,GI50,DU145,30 µM
same,GI50,HCT116,30 µM
same,GI50,HT29,8 µM
same,Percent Survival of Mice,mice; 25 mg/kg intraperitoneal,100%
same,Percent Survival of Mice,mice; 50 mg/kg intraperitoneal,100%
same,Percent Survival of Mice,mice; 100 mg/kg intraperitoneal,100%
same,Percent Survival of Mice,mice; 200 mg/kg intraperitoneal,100%
same,Percent Survival of Mice,mice; 400 mg/kg intraperitoneal,80%
same,In vivo toxicity in mice (in words),mice; intraperitoneal doses 25 to 400 mg/kg,very low mammalian toxicity
same,Bioavailability (in words),[1]; single dose 25 or 50 mg/kg intraperitoneal,high level of bioavailability
same,concentration at 120 min,[1]; single dose 25 mg/kg intraperitoneal,38 µg/mL
same,concentration at 120 min,[1]; single dose 50 mg/kg intraperitoneal,165 µg/mL
"COc1ccc(C=NNc2ccc(S(N)(=O)=O)cc2)cc1 [Example 9, 4-Methoxybenzaldehyde-4-sulfamylphenylhydrazone]",Concentration Required for Complete DLD-1 Colony Growth Inhibition,DLD-1 cells,>75 µM
"NS(=O)(=O)c1ccc(NN=Cc2ccc(F)cc2)cc1 [Example 2, 4-Fluorobenzaldehyde-4-sulfamylphenylhydrazone]",Concentration Required for Complete DLD-1 Colony Growth Inhibition,DLD-1 cells,30 µM
